Key:
Test in all cases: relative viability (nuclei count vs DMSO), 5 days (fraction); higher = more cells survive
IPA-3 + Pemetrexed = compound: C1=CC=C2C(=C1)C=CC(=C2SSC3=C(C=CC4=CC=CC=C43)O)O [IPA-3] + Nc1nc2[nH]cc(CCc3ccc(C(=O)N[C@@H](CCC(=O)O)C(=O)O)cc3)c2c(=O)[nH]1 [Pemetrexed] (partner 0.2 µM)
In short: (§1)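 Values are medians from duplicate plates. Each reflects relative viability, defined as the nuclei count of treated wells over that of vehicle wells. Lung cancer cell lines in 1536-well plates were pin-tool dosed one day after seeding with one drug alone or with a fixed anchor-drug dose plus five library-drug doses (not always all listed) in √10 steps, then fixed, stained and imaged at 4× after 5 days.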

Doramapimod + Pictilisib = compound: Cc1ccc(-n2nc(C(C)(C)C)cc2NC(=O)Nc2ccc(OCCN3CCOCC3)c3ccccc23)cc1 [Doramapimod] + CS(=O)(=O)N1CCN(Cc2cc3nc(-c4cccc5[nH]ncc45)nc(N4CCOCC4)c3s2)CC1 [Pictilisib] (partner 1 µM)
In short: as §1

RAF265 + Alpelisib = compound: Cn1c(Nc2ccc(C(F)(F)F)cc2)nc2cc(Oc3ccnc(-c4ncc(C(F)(F)F)[nH]4)c3)ccc21 [RAF265] + Cc1nc(NC(=O)N2CCC[C@H]2C(N)=O)sc1-c1ccnc(C(C)(C)C(F)(F)F)c1 [Alpelisib] (partner 2 µM)
In short: as §1

Doramapimod + Foretinib = compound: Cc1ccc(-n2nc(C(C)(C)C)cc2NC(=O)Nc2ccc(OCCN3CCOCC3)c3ccccc23)cc1 [Doramapimod] + COc1cc2c(Oc3ccc(NC(=O)C4(C(=O)Nc5ccc(F)cc5)CC4)cc3F)ccnc2cc1OCCCN1CCOCC1 [Foretinib] (partner 0.25 µM)
In short: as §1

Row | Cell Line | relative viability (IPA-3 + Pemetrexed; first compound 0.2 µM) | relative viability (IPA-3 + Pemetrexed; first compound 0.6325 µM) | relative viability (IPA-3 + Pemetrexed; first compound 2 µM) | relative viability (IPA-3 + Pemetrexed; first compound 6.325 µM) | relative viability (IPA-3 + Pemetrexed; first compound 20 µM) | relative viability (Doramapimod + Pictilisib; first compound 0.02 µM) | relative viability (Doramapimod + Pictilisib; first compound 0.06325 µM) | relative viability (Doramapimod + Pictilisib; first compound 0.2 µM) | relative viability (Doramapimod + Pictilisib; first compound 0.6325 µM) | relative viability (Doramapimod + Pictilisib; first compound 2 µM) | relative viability (RAF265 + Alpelisib; first compound 0.01 µM) | relative viability (RAF265 + Alpelisib; first compound 0.03162 µM) | relative viability (RAF265 + Alpelisib; first compound 0.1 µM) | relative viability (RAF265 + Alpelisib; first compound 0.3162 µM) | relative viability (RAF265 + Alpelisib; first compound 1 µM) | relative viability (Doramapimod + Foretinib; first compound 0.02 µM) | relative viability (Doramapimod + Foretinib; first compound 0.06325 µM) | relative viability (Doramapimod + Foretinib; first compound 0.2 µM) | relative viability (Doramapimod + Foretinib; first compound 0.6325 µM) | relative viability (Doramapimod + Foretinib; first compound 2 µM)
1 | HCC-44 | 0.607 | 0.575 | 0.588 | 0.617 | 0.616 | 1.46 | 0.58 | 0.546 | 0.581 | 0.35 | 0.743 | 0.699 | 0.882 | 0.75 | 0.695 | – | – | – | – | –
2 | HCC-78 | 0.918 | 0.894 | 0.999 | 0.869 | 0.953 | 0.224 | 0.208 | 0.224 | 0.173 | 0.184 | 0.33 | 0.358 | 0.432 | 0.291 | 0.249 | 0.542 | 0.575 | 0.54 | 0.545 | 0.539
3 | HCC-366 | 0.192 | 0.147 | 0.21 | 0.169 | 0.178 | 0.15 | 0.137 | 0.131 | 0.125 | 0.136 | 0.404 | 0.432 | 0.539 | 0.579 | 0.124 | 0.617 | 0.874 | 0.899 | 0.876 | 0.821
4 | HCC-827 | 0.264 | 0.261 | 0.241 | 0.254 | 0.254 | 1.15 | 0.972 | 1.06 | 0.933 | 0.738 | 0.984 | 1.02 | 1.01 | – | 0.735 | 1.07 | 1.06 | 1.13 | 1.04 | 0.703
5 | HOP-62 | 0.333 | 0.315 | 0.345 | 0.313 | 0.328 | 0.761 | 0.714 | 0.742 | 0.463 | 0.438 | 0.966 | – | 0.948 | 1.07 | 0.58 | 1.15 | 1.05 | 1.11 | 1.14 | 1.08
6 | IA-LM | – | – | – | – | – | 0.176 | 0.257 | – | 0.343 | 0.288 | 0.774 | – | 0.587 | 0.752 | 0.44 | 0.933 | 1.04 | 1.11 | 1.17 | 0.729
7 | LC-2-ad | 0.294 | 0.28 | 0.285 | 0.281 | 0.307 | 0.303 | 0.429 | 0.605 | 0.537 | 0.267 | 0.771 | 0.727 | 0.724 | 0.35 | 0.202 | 0.927 | 0.882 | 0.865 | 0.559 | 0.807
8 | LCLC-97TM1 | 0.165 | 0.184 | 0.164 | 0.148 | 0.179 | 0.195 | 0.162 | 0.177 | 0.18 | 0.206 | 0.274 | 0.194 | 0.2 | 0.144 | 0.125 | 0.842 | 1.02 | 0.895 | 0.94 | 0.819
9 | LCLC-103H | 0.474 | 0.463 | 0.461 | 0.504 | 0.476 | 0.57 | 0.633 | 0.64 | 0.789 | 0.521 | 0.862 | 1.02 | 0.854 | 0.745 | 0.461 | 0.627 | 0.691 | 0.598 | 0.857 | 0.73
10 | LK-2 | 0.29 | 0.255 | 0.272 | 0.287 | 0.242 | 0.538 | 0.545 | 0.464 | 0.368 | 0.349 | 1.07 | 1.08 | 1.18 | 0.655 | 0.778 | 1.04 | 1.04 | 0.919 | 1.05 | 0.925
11 | LOU-NH91 | 0.382 | 0.377 | 0.465 | 0.387 | 0.411 | 0.582 | 0.524 | 0.493 | 0.524 | 0.406 | 0.747 | 0.667 | 0.739 | 0.557 | 0.495 | 1.01 | 0.938 | 1.02 | 1.07 | 0.681
12 | NCI-H522 | 1.02 | 0.772 | 0.855 | 1.08 | 1.13 | – | – | – | – | – | – | – | – | – | – | – | – | – | – | –
13 | NCI-H727 | – | – | – | – | – | 0.213 | 0.5 | 0.408 | 0.321 | 0.411 | 0.662 | 0.644 | 0.594 | 0.366 | 0.308 | 0.665 | 0.857 | 0.857 | 1.05 | 0.801
14 | NCI-H1299 | – | – | – | – | – | 0.769 | 0.444 | 0.751 | 0.597 | 0.521 | 0.981 | 1.06 | 0.966 | 0.589 | 0.616 | 1.07 | 1.09 | 1.15 | 1.04 | 1.01
15 | NCI-H1623 | – | – | – | – | – | – | – | – | – | – | – | – | – | – | – | 0.95 | 0.791 | 0.86 | 0.743 | 0.746
16 | NCI-H1648 | 0.69 | 0.855 | 0.558 | 0.584 | 0.777 | – | – | – | – | – | – | – | – | – | – | – | – | – | – | –
17 | NCI-H1650 | 0.346 | 0.39 | 0.398 | 0.364 | 0.466 | 0.537 | 0.629 | 0.724 | 0.329 | 0.474 | – | – | – | – | – | 1.06 | 1.26 | 1.36 | 1.41 | 1.21
18 | NCI-H1703 | – | – | – | – | – | 0.234 | 0.226 | 0.236 | 0.248 | 0.215 | 0.213 | 0.298 | 0.251 | 0.274 | 0.206 | 0.297 | 0.316 | 0.4 | 0.336 | 0.342
19 | NCI-H1792 | 1.33 | 0.486 | – | 0.587 | 0.737 | 0.271 | 0.234 | 0.222 | 0.254 | 0.211 | 0.668 | 0.663 | 0.668 | 0.518 | 0.168 | – | – | – | – | –
20 | NCI-H2342 | 0.868 | 0.761 | 0.841 | 0.823 | 0.924 | – | – | – | – | – | – | – | – | – | – | 0.91 | 1.03 | 0.975 | 1.29 | 1.13
21 | SW 900 | 0.544 | 0.456 | 0.472 | 0.441 | 0.527 | – | – | – | – | – | – | – | – | – | – | 0.557 | 0.933 | 0.877 | 1.11 | 0.892
